From ChEMBL document CHEMBL6182937, “Design, Synthesis, and Anti-ischemic Stroke Activity Evaluation of Novel GSNOR Inhibitors” (J Med Chem, 2025)
The source made the active and inactive calls. The rule behind the calls is not given here.

Tests used:
[1] = Inhibition of GSNOR (unknown origin) in presence of NADH incubated for 10 mins by microplate reader analysis; design: species or system Homo sapiens
[2] = species on record: Homo sapiens; assay: Inhibition of GSNOR (unknown origin) at 1 uM in presence of NADH incubated for 10 mins by microplate reader analysis relative to control
[3] = biological target: T1, CYP1A2 (Homo sapiens, UniProt P05177); assay: Inhibition of human CYP1A2 in human liver microsome at 10 uM relative to control; format: ADME; settings: human liver microsomes
T1 sequence (P05177 whole entry): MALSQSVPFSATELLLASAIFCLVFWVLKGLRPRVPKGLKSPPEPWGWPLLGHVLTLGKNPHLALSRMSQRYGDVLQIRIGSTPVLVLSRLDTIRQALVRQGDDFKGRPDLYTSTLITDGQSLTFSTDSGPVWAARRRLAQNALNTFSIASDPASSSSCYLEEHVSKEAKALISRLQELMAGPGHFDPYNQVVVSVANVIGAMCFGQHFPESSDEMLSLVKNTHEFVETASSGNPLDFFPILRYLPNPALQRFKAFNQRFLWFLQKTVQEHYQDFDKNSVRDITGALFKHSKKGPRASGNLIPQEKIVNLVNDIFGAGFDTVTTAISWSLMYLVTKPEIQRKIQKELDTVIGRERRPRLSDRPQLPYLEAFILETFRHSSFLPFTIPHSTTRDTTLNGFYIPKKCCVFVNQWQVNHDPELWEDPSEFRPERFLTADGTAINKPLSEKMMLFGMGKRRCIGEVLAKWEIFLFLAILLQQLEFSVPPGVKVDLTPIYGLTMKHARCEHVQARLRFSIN

[4] = biological target: CYP2C9 (Homo sapiens, UniProt P11712); assay: Inhibition of human CYP2C9 in human liver microsome at 10 uM relative to control; format: ADME; settings: human liver microsomes
CYP2C9, sequence (P11712 whole entry): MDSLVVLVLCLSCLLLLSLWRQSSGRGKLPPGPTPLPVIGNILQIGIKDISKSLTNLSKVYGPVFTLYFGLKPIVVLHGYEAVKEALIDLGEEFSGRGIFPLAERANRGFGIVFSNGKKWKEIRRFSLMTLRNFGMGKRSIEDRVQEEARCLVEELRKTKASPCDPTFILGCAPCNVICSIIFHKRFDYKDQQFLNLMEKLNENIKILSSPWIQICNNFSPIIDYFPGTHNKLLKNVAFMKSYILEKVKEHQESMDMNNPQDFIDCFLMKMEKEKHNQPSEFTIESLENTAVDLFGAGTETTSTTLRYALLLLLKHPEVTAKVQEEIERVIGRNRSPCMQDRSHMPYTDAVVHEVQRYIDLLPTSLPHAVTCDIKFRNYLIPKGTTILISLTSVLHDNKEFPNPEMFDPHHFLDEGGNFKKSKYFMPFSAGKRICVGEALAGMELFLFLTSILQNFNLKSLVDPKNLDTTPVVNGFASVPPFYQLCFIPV

[5] = biological target: CYP2C19 (Homo sapiens, UniProt P33261); assay: Inhibition of human CYP2C19 in human liver microsome at 10 uM relative to control; format: ADME; settings: human liver microsomes
CYP2C19, sequence (P33261 whole entry): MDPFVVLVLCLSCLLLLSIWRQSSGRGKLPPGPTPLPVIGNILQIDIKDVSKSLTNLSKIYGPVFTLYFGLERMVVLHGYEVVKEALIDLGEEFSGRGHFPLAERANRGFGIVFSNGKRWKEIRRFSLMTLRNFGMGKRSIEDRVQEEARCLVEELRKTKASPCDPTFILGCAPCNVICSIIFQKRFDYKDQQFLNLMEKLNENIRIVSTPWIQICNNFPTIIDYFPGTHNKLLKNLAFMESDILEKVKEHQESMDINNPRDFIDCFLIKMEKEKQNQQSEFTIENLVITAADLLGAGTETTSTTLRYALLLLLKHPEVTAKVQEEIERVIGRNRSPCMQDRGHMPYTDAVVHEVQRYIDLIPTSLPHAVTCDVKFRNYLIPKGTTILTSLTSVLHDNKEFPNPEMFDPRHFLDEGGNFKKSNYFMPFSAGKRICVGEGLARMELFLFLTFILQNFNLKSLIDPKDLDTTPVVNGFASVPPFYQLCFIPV

[6] = biological target: CYP2D6 (Homo sapiens, UniProt P10635); assay: Inhibition of human CYP2D6 in human liver microsome at 10 uM relative to control; format: ADME; settings: human liver microsomes
CYP2D6, sequence (P10635 whole entry): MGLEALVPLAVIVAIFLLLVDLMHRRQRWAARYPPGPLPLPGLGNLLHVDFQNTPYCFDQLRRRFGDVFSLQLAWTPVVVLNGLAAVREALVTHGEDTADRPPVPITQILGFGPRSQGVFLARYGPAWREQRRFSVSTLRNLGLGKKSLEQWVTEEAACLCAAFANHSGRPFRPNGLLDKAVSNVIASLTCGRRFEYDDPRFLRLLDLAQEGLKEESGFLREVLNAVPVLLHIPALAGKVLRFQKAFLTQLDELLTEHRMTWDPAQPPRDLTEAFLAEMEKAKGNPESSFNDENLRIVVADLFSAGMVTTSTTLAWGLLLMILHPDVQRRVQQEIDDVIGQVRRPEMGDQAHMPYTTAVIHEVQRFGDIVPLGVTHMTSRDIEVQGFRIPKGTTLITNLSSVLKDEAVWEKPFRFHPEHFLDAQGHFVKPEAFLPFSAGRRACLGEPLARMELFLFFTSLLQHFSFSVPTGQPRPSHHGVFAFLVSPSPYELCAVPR

[7] = biological target: CYP3A4 (Homo sapiens, UniProt P08684); assay: Inhibition of human CYP3A4 in human liver microsome at 10 uM relative to control; format: ADME; settings: human liver microsomes
CYP3A4, sequence (P08684 whole entry): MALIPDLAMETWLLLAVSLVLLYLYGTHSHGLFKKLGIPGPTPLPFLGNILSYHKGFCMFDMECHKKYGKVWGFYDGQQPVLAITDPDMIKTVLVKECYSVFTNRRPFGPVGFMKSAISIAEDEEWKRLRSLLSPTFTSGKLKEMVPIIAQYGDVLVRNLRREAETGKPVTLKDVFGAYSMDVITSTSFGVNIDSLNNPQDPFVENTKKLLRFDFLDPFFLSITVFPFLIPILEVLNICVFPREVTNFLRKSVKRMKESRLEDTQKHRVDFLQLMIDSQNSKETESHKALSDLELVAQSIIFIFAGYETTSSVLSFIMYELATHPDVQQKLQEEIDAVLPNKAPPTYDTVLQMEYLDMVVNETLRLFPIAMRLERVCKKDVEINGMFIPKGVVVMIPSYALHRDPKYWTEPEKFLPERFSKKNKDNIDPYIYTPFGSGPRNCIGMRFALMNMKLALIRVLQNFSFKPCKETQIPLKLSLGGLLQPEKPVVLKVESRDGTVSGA

[8] = system: SH-SY5Y; assay: Cytotoxicity against human SH-SY5Y cells up to 40 uM incubated for 24 hrs by CCK-8 assay; format: functional, cell-based
[9] = system: SH-SY5Y; assay: Neuroprotective activity against OGD/R-induced human […] cell injury model assessed as increase in cell viability at 10 uM measured for 24 hrs by CCK-8 assay; format: functional, cell-based
[10] = Oral bioavailability in male C57BL/6 mouse at 10 mg/kg by LC-MS/MS analysis; format: ADME, organism-based; settings: in vivo
[11] = Half life in Sprague-Dawley rat at 10 mg/kg, iv by LC-MS/MS analysis; format: ADME, organism-based; settings: in vivo
[12] = Tmax in Sprague-Dawley rat at 10 mg/kg, iv by LC-MS/MS analysis; format: ADME, organism-based; settings: in vivo
[13] = Cmax in Sprague-Dawley rat at 10 mg/kg, iv by LC-MS/MS analysis; format: ADME, organism-based; settings: in vivo
[14] = AUC (0 to t) in Sprague-Dawley rat at 10 mg/kg, iv by LC-MS/MS analysis; format: ADME, organism-based; settings: in vivo
[15] = MRT (0 to t) in Sprague-Dawley rat at 10 mg/kg, iv by LC-MS/MS analysis; format: ADME, organism-based; settings: in vivo
[16] = Clearance in Sprague-Dawley rat at 10 mg/kg, iv by LC-MS/MS analysis; format: ADME, organism-based; settings: in vivo
[17] = system: Rattus norvegicus; assay: Neuroprotective activity against tMCAO- induced brain injury in Sprague-Dawley rat model assessed as reduction in infarct volume at 5 mg/kg, iv measured up to 24 hrs by TTC staining based analysis (reference value: 36.35 +/- 4.05%); format: functional; design: scale not given: the % may be the effect or the level left

Compound | IC50 [1] [nM] | inhibition [2] [%] | other results
O=C(O)c1ccc2cc(-c3ccc(-n4ccnc4)cc3)n(Cc3ccc(Cl)cc3)c2c1 | 171 | 28.1 | –
NC(=O)c1ccc(-n2c(-c3ccc(-n4ccnc4)cc3)cc3ccc(C(=O)O)cc32)cc1Br | – | 76.6 | –
NC(=O)c1ccc(-n2c(-c3ccc(-n4ccnc4)cc3)cc3ccc(C(=O)O)cc32)cc1Cl | 51.1 | 93.3 | –
Cc1cc(C(N)=O)ccc1-n1c(-c2ccc(-c3cn(C)nc3C(F)(F)F)cc2)cc2ccc(C(=O)O)cc21 | – | 0.93 | –
CC(C)Oc1cc(-n2c(-c3ccc(-n4ccnc4)cc3)cc3ccc(C(=O)O)cc32)ccc1C(N)=O | 58.3 | 92.3 | –
CCOc1cc(-n2c(-c3ccc(-n4ccnc4)cc3)cc3ccc(C(=O)O)cc32)ccc1C(N)=O | 44.1 | 95.1 | inhibition at 10 µM [3]: 16.6%; inhibition at 10 µM [4]: 75%; inhibition at 10 µM [5]: 70.1%; inhibition at 10 µM [6]: 59.2%; inhibition at 10 µM [7]: 81.5%; Activity [8]: Active; Activity [9]: Active; bioavailability [10]: 6.64%; half-life [11]: 51 min; Tmax [12]: 19.8 min; Cmax [13]: 2930 ng/mL; AUC(0-t) [14]: 3510 ng·h/mL; MRT last [15]: 63 min; clearance [16]: 48.5 mL/min/kg
N[C@@H](CCC(=O)N[C@@H](CSN=O)C(=O)NCC(=O)O)C(=O)O [S-NITROSOGLUTATHIONE] | – | – | Activity [9]: Active; Activity [17]: 25.26%
NC(=O)c1ccc(-n2c(-c3ccc(-n4ccnc4)cc3)cc3ccc(C(=O)O)cc32)cc1C(F)(F)F | – | 50.9 | –
Cc1cc(C(N)=O)ccc1-n1c(-c2ccc(-c3cccnc3)cc2)cc2ccc(C(=O)O)cc21 | – | 22.2 | –
Cc1cc(C(N)=O)ccc1-n1c(-c2ccc(-n3ccnc3)cc2)cc2ccc(C(=O)O)cc21 | 192 | 81.2 | –
NC(=O)c1ccc(-n2c(-c3ccc(-n4ccnc4)cc3)cc3ccc(C(=O)O)cc32)cc1 | 312 | 81.7 | –
N#Cc1ccc(Cn2c(-c3ccc(-n4ccnc4)cc3)cc3ccc(C(=O)O)cc32)cc1F | – | 88.9 | –
Cc1cc(C(N)=O)ccc1-n1c(-c2ccc(NS(N)(=O)=O)cc2)cc2ccc(C(=O)O)cc21 | – | 14.8 | –
NC(=O)c1ccc(-n2c(-c3ccc(-n4ccnc4)cc3)cc3ccc(C(=O)O)cc32)cc1O | 60.3 | 97 | –
Cc1cc(C(N)=O)ccc1-n1c(-c2ccc(O)cc2)cc2ccc(C(=O)O)cc21 | – | 33.7 | –
N#Cc1cccc(Cn2c(-c3ccc(-n4ccnc4)cc3)cc3ccc(C(=O)O)cc32)c1 | 102 | 84.4 | –
NC(=O)c1ccc(Cn2c(-c3ccc(-n4ccnc4)cc3)cc3ccc(C(=O)O)cc32)cc1 | 42.2 | 22.4 | –
